Data: patent US5300679A, “Substituted propane-phosphinic acid compounds” (Ciba-Geigy Corporation, priority 1987, dated 1994)

Test system: pyramidal cells of hippocampal slice
Assay: Penicilline-induced "epileptic" hippocampal slice preparation
Type: cell-based
Conditions: concentration of 6 μM
Method: The GABAB antagonists of the present invention interact at the GABAB receptor with IC50 values starting from about 10^-7 M (moles/liter) in rat brain cortex membranes. […] The antagonism against baclofen has also been shown in in vitro electrophysiological models, such as the penicilline-induced "epileptic" hippocampal slice preparation, where baclofen, at a concentration of 6 μM inhibits "epileptic"-like discharges of pyramidal cells. The compounds of the invention antagonise the effects of baclofen at concentrations from approximately 10 to approximately 100 μM. In vivo, antagonism has been shown by ionophoresis of baclofen on rat cerebral cortex, and systemic application of antagonists in doses of 10-100 mg/kg. The muscle relaxant effects of baclofen measured in the rotarod model are also antagonized at doses of about 30 mg/kg ip.

NCC(CC(=O)O)c1ccc(Cl)cc1 (stereo not shown) [baclofen]
inhibition of "epileptic"-like discharges of pyramidal cells: inhibits
